According to patent publication US9884851B2, “Heterocycle-bisamide inhibitors of scavenger receptor BI” (THE BROAD INSTITUTE, INC., priority 2012, dated 2018):
Entries after “also recorded” stand apart in the source; their conditions may differ.

Columns and labels:
SR-BI [1] = target: T1, SR-BI (Mus musculus, UniProt Q61009); assay: DiI-HDL uptake assay with extended washout; format: cell-based, murine; set-up: expressed in transfected cells; host or cells: ldlA[mSR-BI], Chinese hamster ovary (CHO) cells lacking LDL receptor (Krieger Laboratory); settings: 4-hour washout period
T1 sequence (Q61009 1-509): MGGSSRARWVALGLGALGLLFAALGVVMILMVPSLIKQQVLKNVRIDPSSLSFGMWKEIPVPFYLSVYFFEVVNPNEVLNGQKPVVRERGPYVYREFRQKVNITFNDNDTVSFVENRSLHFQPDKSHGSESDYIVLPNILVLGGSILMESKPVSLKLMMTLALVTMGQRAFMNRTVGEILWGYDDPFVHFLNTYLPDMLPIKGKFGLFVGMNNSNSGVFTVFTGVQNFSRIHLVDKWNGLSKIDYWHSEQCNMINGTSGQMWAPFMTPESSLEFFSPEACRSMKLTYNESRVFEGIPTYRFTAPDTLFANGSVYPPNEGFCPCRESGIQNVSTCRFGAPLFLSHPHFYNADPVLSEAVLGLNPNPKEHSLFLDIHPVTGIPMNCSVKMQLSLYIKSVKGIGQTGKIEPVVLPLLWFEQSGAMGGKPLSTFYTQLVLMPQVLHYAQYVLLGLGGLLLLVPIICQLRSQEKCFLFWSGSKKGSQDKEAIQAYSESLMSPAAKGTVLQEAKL
Procedure: DiI-HDL Uptake Assay with Extended Washout (SA 5: AID No. 588831)
This is another modification of the primary assay where cells are pretreated with compound but no compound is present during a 4-hour washout period or the subsequent 3-hour DiI-HDL treatment period. […] Cells were treated with compound for 3 hours, then were washed four times with PBS, once with lipoprotein-free media (Ham's F12/0.5% fatty acid-free Bovine Serum Albumin [BSA]/25 mM HEPES pH 7.4), and then returned to the incubator with lipoprotein-free media for 4 hours. Media were then removed and cells were washed with PBS before fresh lipoprotein-free media (Ham's F12/0.5% fatty acid-free Bovine Serum Albumin [BSA]/25 mM HEPES pH 7.4) was added with 10 μg protein/ml DiI-HDL. Cells took up the DiI via SR-BI over 3 hours in the absence of compound. After significant uptake of the DiI, the cells became fluorescent. The level of fluorescence correlates with the amount of DiI uptake and can be measured with a standard plate reader. The uptake of lipid (represented by DiI) was inhibited by the compound BLT-1 or with an excess of HDL untreated with DiI.

SR-BI [2] = target: T1, SR-BI; assay: DiI-HDL uptake assay with washout; format: cell-based, murine; set-up: expressed in transfected cells; host or cells: ldlA[mSR-BI], Chinese hamster ovary (CHO) cells lacking LDL receptor (Krieger Laboratory); settings: compound pretreatment, wash, DiI-HDL without compound
Procedure: DiI-HDL Uptake Assay with Washout (SA 5: AID No. 588831)
This is a modification of the primary assay where cells are pretreated with compound but no compound is present during the DiI-HDL treatment period. ldlA[mSR-BI] cells were plated into 384-well plates at 30 μl per well and incubated overnight. Cells were treated with compound for 3 hours, then media were removed and the cells were washed with PBS before fresh lipoprotein-free media (Ham's F12/0.5% fatty acid-free Bovine Serum Albumin [BSA]/25 mM HEPES pH 7.4) was added with 10 μg protein/ml DiI-HDL. Cells took up the DiI via SR-BI over 3 hours in the absence of compound. After significant uptake of the DiI, the cells became fluorescent. The level of fluorescence correlates with the amount of DiI uptake and can be measured with a standard plate reader. The uptake of lipid (represented by DiI) was inhibited by the compound BLT-1.

hepatitis C virus (HCV) = assay: In vitro testing with Huh-7.5 cells infected with HCV; format: cell-based; settings: for inhibition of HCV replication (in words): Huh-7.5 cells infected with Jcl 378-1 TagRFP (MOI=0.1), 3 dpi
Procedure: A series of tests were conducted using the compound of Formula II (CID53393835/ML279), other known inhibitors of SR-BI and controls with cells infected with hepatitis C virus (HCV). The cells (Huh-7.5 cells infected with Jcl 378-1 TagRFP (MOI=0.1) 3 dpi) were treated with the following SR-BI compounds and controls:
Three different infection protocols were followed: (1) no wash—virus inoculum was removed 4hpi and fresh medium containing compounds added without washing cells; (2) 5× wash—virus inoculum was removed 4hpi, cells were washed 5× with PBS and fresh medium containing compounds added; and (3) no wash Opt—infection were performed in serum-free OptiMem; virus inoculum was removed 4hpi and fresh medium containing compounds added without washing cells. FIG. 90 provides a comparison of the three different infection set-ups. FIG. 91 provides a comparison of two independent experiments.

SMILES	activity after extended washout (in words) (SR-BI [1])	reversibility of inhibition / activity after washout (in words) (SR-BI [2])	reversibility of inhibition / activity after washout (in words) (SR-BI [2]; listed as compound of Formula (II))	inhibition of HCV replication (in words) (hepatitis C virus (HCV); listed as 5)	inhibition of HCV replication (in words) (hepatitis C virus (HCV); listed as SRB1-5)	inhibition of virus assembly/egress (in words) (hepatitis C virus (HCV); fluorescence intensity of HCV positive cells normalized to DMSO)	IC50 (SR-BI [1]; read-out: DiI-HDL uptake IC50 after 4-hour washout period) [pM]	inhibition of HCV replication (in words) (hepatitis C virus (HCV); listed as 8)	inhibition of HCV replication (in words) (hepatitis C virus (HCV); listed as SRB1-8)	mean fluorescence intensity (MFI) of HCV positive cells (in words) (hepatitis C virus (HCV); dose dependence)
C[C@H](C(=O)NC1CCCC1)N(C(=O)Cn1nnc(-c2ccc3c(c2)OCO3)n1)C1CCCCC1 [ML279, (R)-2-(2-(5-(Benzo[d][1,3]dioxol-5-yl)-2H-tetrazol-2-yl)-N-cyclohexylacetamido)-N-cyclopentylpropanamide]	greatly attenuated	reversible binder of SR-BI; also recorded: greatly attenuated; also recorded: reversible inhibitor of HDL uptake; also recorded: showed no inhibition	reversible inhibitor	able to inhibit HCV replication	inhibited viral replication	can also inhibit virus assembly/egress	–	–	–	–
CCCCCCC1CCCC1=NNC(N)=S (centres unmarked) [BLT-1, reference compound]	–	nonreversible covalent modifier of SR-BI	–	–	–	–	600	able to inhibit HCV replication	inhibited viral replication	increased mean fluorescence intensity (MFI) of HCV positive cells in a dose dependent manner
